Results published in article PMC10696396, “HilE represses the activity of the Salmonella virulence regulator HilD via a mechanism distinct from that of intestinal long-chain fatty acids” (The Journal of Biological Chemistry, 2023).

Key:
[1] = molecular target: T1, HilD (Salmonella enterica, UniProt P0CL08); assay: biochemical; design: EYFP-HilD (full-length HilD with N-terminal EYFP tag); microscale thermophoresis, fatty acid titrated against EYFP-HilD in presence of Pluronic F-127, MST on-time 1.5 s; details: in presence of Pluronic F-127; read-out: Kd ± SD
[2] = molecular target: T1, HilD; assay: MST; type: binding; design: EYFP-HilD (full-length HilD with N-terminal EYFP tag); details: read-out: Kd ± SD
[3] = molecular target: T1, HilD; assay: MST; supported by HDX-MS, nanoDSF and BS3 cross-linking; type: binding; design: EYFP-HilD (full-length HilD with N-terminal EYFP tag); details: read-out: Kd ± SD
[4] = molecular target: T2, HilD (Salmonella enterica, UniProt P0CL08, R267A); assay: MST; type: binding
T2 construct: HilD point mutant
T2 sequence (P0CL08 1-309 R267A): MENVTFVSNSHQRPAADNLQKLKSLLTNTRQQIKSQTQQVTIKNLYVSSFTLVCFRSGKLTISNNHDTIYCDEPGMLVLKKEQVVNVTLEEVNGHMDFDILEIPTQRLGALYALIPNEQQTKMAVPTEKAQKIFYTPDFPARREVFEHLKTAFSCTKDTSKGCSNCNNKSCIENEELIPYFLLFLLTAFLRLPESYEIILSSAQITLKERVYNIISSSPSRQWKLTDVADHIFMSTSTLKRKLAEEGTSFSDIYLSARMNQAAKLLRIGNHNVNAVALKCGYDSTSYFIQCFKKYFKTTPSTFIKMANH

[5] = molecular target: T3, HilD (Salmonella enterica, UniProt P0CL08, E102A); assay: MST; type: binding
T3 construct: HilD point mutant
T3 sequence (P0CL08 1-309 E102A): T2 sequence (P0CL08 1-309 R267A)

[6] = molecular target: T4, HilD (Salmonella enterica, UniProt P0CL08, E102A/K264A/R267A); assay: MST; type: binding
T4 construct: HilD triple alanine mutant
T4 sequence (P0CL08 1-309 E102A/K264A/R267A): T2 sequence (P0CL08 1-309 R267A)

[7] = molecular target: T5, HilD (Salmonella enterica, UniProt P0CL08, K264A); assay: MST; type: binding
T5 construct: HilD point mutant
T5 sequence (P0CL08 1-309 K264A): T2 sequence (P0CL08 1-309 R267A)

[8] = molecular target: T1, HilD; assay: EMSA with hilA promoter DNA; type: biochemical; design: HilD
[9] = molecular target: T1, HilD; assay: MST; supported by nanoDSF melting temperature increase; type: binding; design: EYFP-HilD (full-length HilD with N-terminal EYFP tag); details: read-out: Kd ± SD

Structure (SMILES): CCCC/C=C\CCCCCCCC(=O)O [Myristoleic Acid]
- Kd [1]: 567 µM

Structure (SMILES): CCCCCCCC/C=C\CCCCCCCCCCCC(=O)O [erucic acid]
- Kd [2]: 12.8 ± 3.33 µM
- Kd [1]: 14.7 µM

Structure (SMILES): CCCCCCCC/C=C\CCCCCCCC(=O)O [oleic acid]
- Kd [3]: 15 ± 3.21 µM
- Kd [4]: 39.4 ± 7.98 µM
- Kd [5]: 39 ± 8.26 µM
- Kd [6]: 39.7 ± 7.9 µM
- Kd [7]: 27.1 ± 7.08 µM

Structure (SMILES): CCCCCCCC/C=C/CCCCCCCC(=O)O [elaidic acid]
- EMSA with hilA promoter DNA [8]: Elaidic acid appears to bind to HilD with similar affinity to oleic acid

Structure (SMILES): CCCCCC/C=C\CCCCCCCC(=O)O [palmitoleic acid]
- Kd [9]: 27.6 ± 8.7 µM

Structure (SMILES): CCCCCCCC/C=C\CCCCCCCC(=O)OC [Methyl Oleate]
- Kd [1]: 739 µM
